According to patent publication US5573999A, “β-substituted cinnamic acid derivative” (BASF Aktiengesellschaft, priority 1991, dated 1996):

How the values were obtained:
Plasmopara viticola = assay: Activity against Plasmopara viticola on potted vines; format: in vivo; conditions: aqueous dispersion containing 250 ppm active ingredient, infected 8 days after spraying
Protocol: Leaves of potted vines of the Muller Thurgau variety were sprayed with an aqueous liquor which contained 80% of active ingredient and 20% of emulsifier in dry matter. To assess the duration of action of the active ingredient, after the sprayed-on layer had dried the plants were placed in a greenhouse for 8 days. The leaves were then infected with a suspension of Plasmopara viticola zoospores. The vines were then placed first in a chamber saturated with water vapor at 24° C. for 48 hours and then in a greenhouse at from 20° to 30° C. for 5 days. After this, to speed up sporangiophore discharge, the plants were again placed in the humidity chamber for 16 hours. The extent of fungus attack was then assessed on the undersides of the leaves.

[1] = test system: mitochondrial respiration; assay: Inhibition of mitochondrial respiration (rate of reduction of cytochrome c in isolated mitochondria), yeast; format: biochemical, Saccharomyces cerevisiae; conditions: DMSO control
Source text: In order to determine the effect of the compounds according to the invention on mitochondrial respiration it is first necessary to isolate the mitochondria from the organisms being investigated. For this, in the case of the yeast Saccharomyces cerevisiae, the cells in a 30 to 40% strength suspension of the yeast in an aqueous solution of 0.6M mannitol+0.01M tris[hydroxymethyl]-aminomethane+0.002M disodium ethylenediaminetetraacetate (pH 6.8) are disrupted in a glass bead mill, and the extract is fractionated by differential centrifugation at 1000× g and 12000× g. The mitochondria are in the pellet from the 12000× g centrifugation.
(§1) Used as control is a mixture with the equivalent amount of pure DMSO. The inhibition at the concentration of agent in each case is then calculated as follows [formula] where ΔE is the change in extinction, at is the change in time, [formula] is the reaction rate for the control and [formula] is the reaction rate for the sample x.
(§2) The inhibition was determined in each case at a test substance concentration of 1.8/10^-5mol/l .

[2] = test system: mitochondrial respiration; assay: Inhibition of mitochondrial respiration (rate of reduction of cytochrome c in isolated mitochondria), house fly; format: biochemical, Musca domestica; conditions: DMSO control
Source text: It is also possible similarly to isolate mitochondria from other organisms, e.g. from the phytopathogenic fungus Drechslera sorokiniana (synonym: Helminthosporium sativum), from the dermatophyte Trichophyton mentagrophytes, which is a human pathogen, and, for example, from the house fly (Musca domestica) as insect or from the spider mite Tetranychus urticae.
as §1, §2

[3] = test system: wheat mildew (Erysiphe graminis var. tritici); assay: Activity against wheat mildew on wheat seedlings; format: in vivo; conditions: aqueous dispersion containing 250 ppm active ingredient, assessed after 7 days
Protocol: Leaves of pot-grown wheat seedlings of the Fruhgold variety were sprayed with an aqueous liquor which contained 80% of active ingredient and 20% of emulsifier in dry matter and, 24 hours after the sprayed-on layer had dried, were dusted with spores of wheat mildew (Erysiphe graminis var. tritici). The test plants were then placed in a greenhouse at from 20° to 22° C. and from 75 to 80% relative humidity. The extent of mildew spread was assessed after 7 days.

| SMILES | fungal attack, Plasmopara viticola (Plasmopara viticola) | % inhibition of respiration at 1.8 × 10^-5 mol/l test substance, Saccharomyces cerevisiae [1] | % inhibition of respiration at 1.8 × 10^-5 mol/l test substance, Musca domestica [2] | fungal attack, wheat mildew [3] |
| --- | --- | --- | --- | --- |
| COC(=O)/C=C(/OC)c1ccccc1COc1ccc(Oc2ccccc2)cc1 [Compound 1a.31] | 10% | – | – | – |
| COC(=O)/C=C(/OC)c1ccccc1COc1nc(-c2ccccc2)sc1C [Compound 1a.182] | 10% | 98% | – | – |
| CON=Cc1cccc(OCc2ccccc2/C(=C\C(=O)OC)OC)c1 [Compound 1a.62] | 10% | 87% | 74% | – |
| COC(=O)/C=C(/OC)c1ccccc1/C=C\c1cccc(C(F)(F)F)c1 [Compound 1a.246] | – | 84% | 81% | 15% |
| COC(=O)/C=C(/OC)c1ccccc1/C=C\c1cccc(Oc2ccccc2)c1 [Compound 1a.272] | – | 51% | 78% | – |
| COC(=O)/C=C(/OC)c1ccccc1/C=C/c1cc[nH]c1 [Compound 1a.288] | – | 50% | 22% | – |
| COC(=O)/C=C(/OC)c1ccccc1/C=C/c1nc(-c2ccc(F)cc2)no1 [Compound 1a.310] | 10% | 99% | – | – |
| COC(=O)/C=C(/OC)c1ccccc1/C=C\c1noc(-c2ccc(Cl)cc2)c1C [Compound 1a.323] | 10% | 99% | – | – |
| COC(=O)/C=C(/OC)c1ccccc1/C=C\c1cccc([N+](=O)[O-])c1 [Compound 1a.241] | – | 20% | 9% | – |
| COC(=O)/C=C(/OC)c1ccccc1/C=C/c1cccc(C(F)(F)F)c1 [Compound 1a.245] | – | 98% | 91% | 15% |
| COC(=O)/C=C(/OC)c1ccccc1/C=C/c1cccs1 [Compound 1a.294] | – | 98% | 95% | 15% |
| COC(=O)/C=C(/OC)c1ccccc1/C=C\c1cccs1 [Compound 1a.295] | – | 94% | 76% | – |
| COC(=O)/C=C(/OC)c1ccccc1/C=C\c1ccn(-c2ccc(Cl)cc2)c1 [Compound 1a.305] | – | 30% | 39% | – |
| COC(=O)/C=C(/OC)c1ccccc1/C=C/c1cc(-c2ccc(Cl)cc2)no1 [Compound 1a.300] | – | 98% | 93% | – |
| COC(=O)/C=C(/OC)c1ccccc1/C=C/c1ccn(-c2ccc(Cl)cc2)c1 [Compound 1a.304] | – | 97% | 96% | 15% |
| COC(=O)/C=C(/OC)c1ccccc1/C=C/c1cccc(Oc2ccccc2)c1 [Compound 1a.271] | – | 92% | 94% | – |

| SMILES | fungal attack, Plasmopara viticola (Plasmopara viticola) | % inhibition of respiration at 1.8 × 10^-5 mol/l test substance, Saccharomyces cerevisiae [1] | % inhibition of respiration at 1.8 × 10^-5 mol/l test substance, Musca domestica [2] | fungal attack, wheat mildew [3] |
| --- | --- | --- | --- | --- |
| COC(=O)/C=C(/OC)c1ccccc1COc1ccccc1C [Compound 1a.2] | – | 88% | 21% | 15% |
| COC(=O)/C=C(/OC)c1ccccc1/C=C\c1ccccc1[N+](=O)[O-] [Compound 1a.239] | – | 44% | 16% | 15% |
| COC(=O)/C=C(/OC)c1ccccc1/C=C\c1ccsc1 [Compound 1a.297] | – | 70% | 22% | – |
| COC(=O)/C=C(/OC)c1ccccc1/C=C\c1csc(-c2ccccc2)n1 [Compound 1a.307] | – | 58% | 71% | – |
| COC(=O)/C=C(/OC)c1ccccc1/C=C/c1cccc([N+](=O)[O-])c1 [Compound 1a.240] | – | 94% | 84% | – |
| COC(=O)/C=C(/OC)c1ccccc1/C=C\c1cnn(-c2ccc(Cl)cc2)c1 [Compound 1a.321] | 10% | 19% | – | – |
| COC(=O)/C=C(/OC)c1ccccc1/C=C/c1csc(-c2ccc(C)cc2)n1 [Compound 1a.312] | 10% | 99% | – | – |
| COC(=O)/C=C(/OC)c1ccccc1/C=C/c1ccc(C(F)(F)F)cc1 [Compound 1a.519] | – | 97% | 89% | – |
| COC(=O)/C=C(/OC)c1ccccc1/C=C/c1cnn(-c2ccc(OC)cc2)c1 [Compound 1a.318] | 10% | 98% | – | – |
| COC(=O)/C=C(/OC)c1ccccc1/C=C\c1coc(-c2ccc(Cl)cc2)n1 [Compound 1a.303] | – | 98% | 86% | – |
| COC(=O)/C=C(/OC)c1ccccc1/C=C/c1csc(-c2ccc(F)cc2)n1 [Compound 1a.394, methyl 2-{2-[2-(4-fluorophenyl)-4-thiazolyl]-(E)-ethenyl}-(E)-β-methoxycinnamate] | 10% | 96% | 99% | – |
| COC(=O)/C=C(/OC)c1ccccc1/C=C/c1ccco1 [Compound 1a.290] | – | 98% | 86% | 15% |
| COC(=O)/C=C(/OC)c1ccccc1/C=C/c1csc(-c2ccccc2)n1 [Compound 1a.306] | – | 98% | 96% | – |
| CC/C(=C/C(=O)OC)c1ccccc1COc1ccccc1C [Compound 1a.110] | 10% | – | 12% | – |
| COC(=O)/C=C(/OC)c1ccccc1/C=C\c1ccccc1C(F)(F)F [Compound 1a.244] | – | 65% | 50% | – |
| COC(=O)/C=C(/OC)c1ccccc1/C=C\c1ccoc1 [Compound 1a.293] | – | 65% | 27% | – |
